Source: patent US5541343A, “Cyclic imino derivatives and pharmaceutical compositions containing them” (Karl Thomae GmbH, priority 1990, dated 1996)
Counter-ions that a name gives are not always drawn.

Columns and labels:
[1] = system: platelet aggregation; assay: Antithrombotic effect: collagen-induced platelet aggregation (Born and Cross method) in platelet-rich plasma; format: cell-based; details: Homo sapiens, 10 minutes preincubation at 37° C., 50% change in optical density, read-out: Inhibition of platelet aggregation EC50
Description: The thrombocyte aggregation is measured by the Born and Cross method (J. Physiol. 170: 397 (1964)) in platelet-rich plasma from healthy test subjects. To inhibit coagulation, 3.14% sodium citrate is added to the blood in a ratio by volume of 1:10.
Collagen-induced aggregation
The curve of the decrease in optical density of the platelet suspension is measured and recorded photometrically after the addition of the aggregation-inducing substance. The speed of aggregation is determined from the angle of inclination of the density curve. The point on the curve where maximum transmittance occurs is used to calculate the optical density.
The quantity of collagen is made as small as possible but sufficient to produce an irreversible reaction curve. Standard commercial collagen made by Hormonchemie of Munich is used. Before the addition of collagen, the plasma is incubated for 10 minutes with the substance at 37° C.
From the measurements obtained, an EC50 is determined graphically relating to a 50% change in the optical density in the sense of an inhibition of aggregation.

[2] = target: human thrombocytes; assay: Fibrinogen binding to human thrombocytes; details: gel-filtered platelets, 125-J-fibrinogen, 20 minutes at ambient temperature; read-out: Fibrinogen binding test IC50
Description: 1. Fibrinogen binding to human thrombocytes
Blood obtained by puncture of an antecubital vein is anticoagulated with trisodium citrate (final concentration: 13 mM) and centrifuged for 10 minutes at 170 g. The supernatant platelet-rich plasma is placed on a Sepharose 2B column (Pharmacia) and eluted with a solution of 90 mM common salt, 14 mM trisodium citrate, 5 mM glucose and 50 mM tris(hydroxymethyl)aminomethane, adjusted to pH 7.4. The gel-filtered platelets (GFP) appearing in front of the plasma proteins are used for the binding tests.
50 μl of a 60 mM calcium chloride solution, 50 μl of a 0.6 mM adenosine diphosphate solution, 100 μl of substance solution or solvent and 50 μl of fibrinogen solution (containing 3 μg 125-J-fibrinogen) are added to 750 μl of GFP and incubated for 20 minutes at ambient temperature. The non-specific binding is measured in the presence of 3 mg/ml of cold fibrinogen.
900 μl of the incubate are carefully pipetted onto 250 μl of silicon oil (AP 38: AR 20, 1:2 v/v, Wacker Chemie) in Eppendorf vessels and centrifuged for 2 minutes at 10,000 g. The aqueous supernatant and some of the oil are removed, the tip of the vessel with the platelet pellet is cut off and the quantity of bound fibrinogen is measured in a gamma-counter. The concentration of substance which inhibits fibrinogen binding by 50% is calculated from a concentration series and given as the IC50.

[3] = system: collagen-induced thrombocyte aggregation; assay: Collagen-induced thrombocyte aggregation ex vivo in rhesus monkeys following oral administration; details: 1 mg/kg
Description: Moreover, the compound of Example 70(1), for example, inhibits collagen-induced thrombocyte aggregation ex vivo in rhesus monkeys following oral administration of 1 mg/kg for more than 8 hours.

[4] = Approximate LD50 in rats (tolerability); details: rat, in vivo, after intravenous route
Description: The new compounds are well tolerated since the approximate LD50 in rats is, for example, for the compound of Example (3) above 100 mg/kg after intravenous route and for the compound of Example 70(1) above 2.000 mg/kg after oral administration.

| EC50 [1] | IC50 [2] | Compound | inhibits collagen-induced thrombocyte aggregation ex vivo (duration of inhibition) [3] | LD50 [4] |
| --- | --- | --- | --- | --- |
| 2800 nM | 230 nM | N=C(N)c1ccc(-c2ccc(OC[C@H]3CNC(=O)[C@@H]3CC(=O)O)cc2)cc1 (relative stereo) [7(89), (3R,S;4R,S)-4-[(4'-amidino-4-biphenylyl)oxymethyl]-3-carboxymethyl-2-pyrrolidinone] |  |  |
| 66000 nM | 4700 nM | N=C(N)NCCCCCOc1ccc([C@@H]2C[C@@H](CC(=O)O)C(=O)N2CCCc2ccccc2)cc1 (relative stereo) [31(1), (3S,R;5S,R)-3-carboxymethyl-5-[4-[(5-guanidinopentyl)oxy]phenyl]-1-(3-phenylpropyl)-2-pyrrolidinone] |  |  |
| 1900 nM | 2300 nM | COC(=O)C[C@@H]1C[C@@H](COc2ccc(-c3ccc(C(=N)N)cc3)cc2)NC1=O [6(2), (3S,5S)-5-[(4'-amidino-4-biphenylyl)oxymethyl]-3-[(methoxycarbonyl)methyl]-2-pyrrolidinone×1.25 HCl] |  |  |
| 1000 nM | 420 nM | N=C(N)c1ccc(-c2ccc(N3CC(CP(=O)(O)O)CC3=O)cc2)cc1 (centres unmarked) [6(184), 1-(4'-amidino-4-biphenylyl)-4-phosphonomethyl-2-pyrrolidinone] |  |  |
| 170 nM | 24 nM | N=C(N)c1ccc(-c2ccc(OC[C@@H]3C[C@@H](CC(=O)O)C(=O)N3c3ccccc3)cc2)cc1 [7(1), (3S,5S)-5-[(4'-amidino-4-biphenylyl)oxymethyl]-3-carboxymethyl-1-phenyl-2-pyrrolidinone-dihydrate] |  |  |
| 2600 nM | 50 nM | Cc1c(OC[C@@H]2C[C@@H](CC(=O)O)C(=O)N2CCCc2ccccc2)ccc(-c2ccc(C(=N)N)cc2)c1C [7(10), (3S,5S)-5-[(4'-amidino-2,3-dimethyl-4-biphenylyl)oxymethyl]-3-carboxymethyl-1-(3-phenylpropyl)-2-pyrrolidinone-hydrate] |  |  |
| 410 nM | 41 nM | N=C(N)c1ccc2c(c1)C(=O)c1cc(OC[C@@H]3C[C@@H](CC(=O)O)C(=O)N3CCCc3ccccc3)ccc1-2 [7(36), (3S,5S)-5-[(7-amidino-9-keto-2-fluorenyl)oxymethyl]-3-carboxymethyl-1-(3-phenylpropyl)-2-pyrrolidinone] |  |  |
| 2000 nM | 170 nM | CC(=O)N(C[C@@H]1C[C@@H](CC(=O)O)C(=O)N1CCCc1ccccc1)c1ccc(-c2ccc(C(=N)N)cc2)cc1 [7(40), (3S,5S)-5-[[N-(4'-amidino-4-biphenylyl)-N-acetyl]aminomethyl]-3-carboxymethyl-1-(3-phenylpropyl)-2-pyrrolidinonehydrate] |  |  |
| 19000 nM | 2800 nM | N=C(N)c1ccc(Nc2ccccc2C(=O)NC[C@@H]2C[C@@H](CC(=O)O)C(=O)N2CCCc2ccccc2)cc1 [7(41), (3S,5S)-5-[[2-[(4-amidinophenyl)amino]phenyl]carbonylaminomethyl]-3-carboxymethyl-1-(3-phenylpropyl)-2-pyrrolidinone] |  |  |
| 12000 nM | 690 nM | N=C(N)c1cccc(C(=O)c2ccc(OC[C@@H]3C[C@@H](CC(=O)O)C(=O)N3CCCc3ccccc3)cc2)c1 [7(46), (3S,5S)-5-[[4-[(3-amidinophenyl)carbonyl]phenyl]oxymethyl]-3-carboxymethyl-1-(3-phenylpropyl)-2-pyrrolidinone] |  |  |
| 80 nM | 27 nM | CN(C)C(=O)CN1C(=O)[C@H](CC(=O)O)C[C@H]1COc1ccc(-c2ccc(C(=N)N)cc2)cc1 [7(51), (3S,5S)-5-[(4'-amidino-4-biphenylyl)oxymethyl]-3-carboxymethyl-1-[(dimethylaminocarbonyl)methyl]-2-pyrrolidinone hydrochloride-semihydrate] |  |  |
| 60 nM | 20 nM | CC(=O)N1C[C@H](CC(=O)O)C[C@H]1COc1ccc(-c2ccc(C(=N)N)cc2)cc1 [7(56), (3S,5S)-1-acetyl-5-[(4'-amidino-4-biphenylyl)oxymethyl]-3-carboxymethyl-pyrrolidine-semihydrate] |  |  |
| 210 nM | 20 nM | CN(C)S(=O)(=O)N1C[C@H](CC(=O)O)C[C@H]1COc1ccc(-c2ccc(C(=N)N)cc2)cc1 [7(58), (3S,5S)-5-[(4'-amidino-4-biphenylyl)oxymethyl]-3-carboxymethyl-1-(dimethylaminosulphonyl)-pyrrolidine×0.25 water] |  |  |
| 19000 nM | 400 nM | N=C(N)c1ccc(-c2ccc(S(=O)(=O)NC[C@@H]3C[C@@H](CC(=O)O)C(=O)N3CCCc3ccccc3)cc2)cc1 [7(70)] |  |  |
| 100 nM | 26 nM | N=C(N)c1ccc(-c2ccc(OC[C@@H]3C[C@@H](CC(=O)O)C(=O)N3)cc2)cc1F [7(93), (3S,5S)-5-[(4'-amidino-3'-fluoro-4-biphenylyl)oxymethyl]-3-carboxymethyl-2-pyrrolidinone] |  |  |
| 20000 nM | 4600 nM | NCCCCc1ccc(OC[C@@H]2C[C@@H](CC(=O)O)C(=O)N2CCCc2ccccc2)cc1 [23(8), (3S,5S)-5-[[4-(4-aminobutyl)phenyl]oxymethyl]-3-carboxymethyl-1-(3-phenylpropyl)-2-pyrrolidinonesemihydrate ×1.25 HCl] |  |  |
| 33000 nM | 2200 nM | NCCCC(=O)Nc1ccc(OC[C@@H]2C[C@@H](CC(=O)O)C(=O)N2CCCc2ccccc2)cc1 [32(1), (3S,5S)-5-[[4-[(3-aminopropyl)carbonylamino]phenyl]oxymethyl]-3-carboxymethyl-1-(3-phenylpropyl)-2-pyrrolidinone] |  |  |
| 900 nM | 32 nM | N=C(N)c1ccc(-c2ccc(OC[C@@H]3C[C@@H](CC(=O)O)C(=O)N3CCCc3ccccc3)cc2)cc1 [Example 7, (3S,5S)-5-[(4'-Amidino-4-biphenylyl)oxymethyl)-3-carboxymethyl-1-(3-phenylpropyl)-2-pyrrolidinone-hydrate] |  |  |
| 5800 nM | 1200 nM | NC1CCc2cc(C(=O)NCC[C@@H]3C[C@@H](CC(=O)O)C(=O)N3CCCc3ccccc3)ccc2C1 (stereo partly drawn) [Example 32, (3S,5S)-5-[2-[(6-Amino-5,6,7,8-tetrahydro-2-naphthylcarbonyl)amino]ethyl]-3-carboxymethyl-1-(3-phenylpropyl)-2-pyrrolidinone-semihydrate] |  |  |
|  |  | COC(=O)C[C@@H]1C[C@@H](COc2ccc(-c3ccc(C(=N)NC(=O)OC)cc3)cc2)NC1=O [Example 70(1), (3S,5S)-5-[[4'-(N-methoxycarbonylamidino)-4biphenylyl]oxymethyl]-3-[(methoxycarbonyl)methyl]-2-pyrrolidinone] | more than 8 hours |  |
| 11000 nM | 4600 nM | N=C(NO)c1ccc(-c2ccc(OC[C@@H]3C[C@@H](CC(=O)O)C(=O)N3)cc2)cc1 [Example 71, (3S,5S)-3-Carboxymethyl-5-[[4'-(N-hydroxyamidino)-4biphenylyl)oxymethyl]-2-pyrrolidinone] |  |  |
|  |  | N=C(N)c1ccc(-c2ccc(OC[C@@H]3C[C@@H](CC(=O)O)C(=O)N3)cc2)cc1 [Example (3), (3S,5S)-5-[(4'-amidino-4-biphenylyl)oxymethyl]-3-carboxymethyl-2-pyrrolidinone] |  | > 100 mg/kg |

| Compound | EC50 [1] | IC50 [2] | inhibits collagen-induced thrombocyte aggregation ex vivo (duration of inhibition) [3] | LD50 [4] |
| --- | --- | --- | --- | --- |
| N=C(N)c1ccc(-c2ccc(OC[C@@H]3C[C@@H](CC(=O)O)C(=O)N3)cc2)cc1 [7(3), (3S,5S)-5-[(4'-amidino-4-biphenylyl)oxymethyl]-3-carboxymethyl-2-pyrrolidinone] | 60 nM | 31 nM |  |  |
